According to patent US7902198B2, “Crystalline aripiprazole solvates” (Synthon BV, priority 2004, dated 2011):

Columns and labels:
[1] = as taught in WO 03/26659, cited from earlier work
[2] = Solid-state stability upon storage at room temperature; type: physicochemical; details: hemi-ethanolate for at least one month, methanolate prolonged storage
From the text: In practice, the molar ratio between aripiprazole and ethanol moieties in the isolated product is from 1:0.4 to 1:0.6, preferably 1:0.45 to 1:0.6.

[3] = Solid-state stability towards thermal energy, milling and forced sieving; details: for change of crystalline structure during milling: milling (Example 7: ball mill 1 minute, IR and XRPD)

| SMILES | stability upon storage [2] | change of crystalline structure during milling [3] | also measured |
| --- | --- | --- | --- |
| O=C1CCc2ccc(OCCCCN3CCN(c4cccc(Cl)c4Cl)CC3)cc2N1 [Type I aripiprazole, 7-[4-[4-(2,3-dichlorophenyl)-1-piperazinyl]butoxy]-3,4-dihydrocarbostyril] |  |  | hygroscopicity [1]: significantly hygroscopic |
| O=C1CCc2ccc(OCCCCN3CCN(c4cccc(Cl)c4Cl)CC3)cc2N1 [Aripiprazole hemi-ethanolate, 7-[4-[4-(2,3-dichlorophenyl)-1-piperazinyl]butoxy]-3,4-dihydrocarbostyril] | reasonably stable |  | stability towards thermal energy, including milling [3]: rather unstable |
| O=C1CCc2ccc(OCCCCN3CCN(c4cccc(Cl)c4Cl)CC3)cc2N1 [Example 5] |  |  | effect of forced sieving on the crystal structure ([3]; pressed through a 100 μm sieve, IR, XRPD): no detectable effect on the crystal structure |
| O=C1CCc2ccc(OCCCCN3CCN(c4cccc(Cl)c4Cl)CC3)cc2N1 [Example 7] |  | crystal structure has not been changed |  |
| O=C1CCc2ccc(OCCCCN3CCN(c4cccc(Cl)c4Cl)CC3)cc2N1 [Anhydrous Form B, 7-[4-[4-(2,3-dichlorophenyl)-1-piperazinyl]butoxy]-3,4-dihydrocarbostyril] |  |  | water uptake ([1]; in 24 hours): less than 0.4% |
| O=C1CCc2ccc(OCCCCN3CCN(c4cccc(Cl)c4Cl)CC3)cc2N1 [aripiprazole methanolate, 7-[4-[4-(2,3-dichlorophenyl)-1-piperazinyl]butoxy]-3,4-dihydrocarbostyril] | more stable upon prolonged storage at room temperature than the hemi-ethanolate | does not change its crystalline structure |  |
